In one assay the target is Carbonic anhydrase 12 (Homo sapiens, UniProt O43570). The assay is described as follows: Inhibition of human carbonic anhydrase-12 incubated for 15 mins by stopped-flow CO2 hydration assay.
In the next assay the target is Carbonic anhydrase 9 (Homo sapiens, UniProt Q16790). The assay can be described thus: Inhibition of human carbonic anhydrase-9 incubated for 15 mins by stopped-flow CO2 hydration assay.
The target of a further assay is Carbonic anhydrase 1 (Homo sapiens, UniProt P00915). The assay can be described thus: Inhibition of human carbonic anhydrase-1 incubated for 15 mins by stopped-flow CO2 hydration assay.
Carbonic anhydrase 1, sequence (P00915 whole entry): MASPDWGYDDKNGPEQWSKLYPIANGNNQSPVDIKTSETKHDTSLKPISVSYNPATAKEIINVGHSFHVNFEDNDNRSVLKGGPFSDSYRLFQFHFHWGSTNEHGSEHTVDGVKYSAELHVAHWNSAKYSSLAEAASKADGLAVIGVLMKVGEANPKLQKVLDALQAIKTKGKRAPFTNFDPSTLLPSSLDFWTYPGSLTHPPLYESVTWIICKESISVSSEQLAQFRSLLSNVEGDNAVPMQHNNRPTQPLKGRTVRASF

Carbonic anhydrase 12, sequence (O43570 whole entry): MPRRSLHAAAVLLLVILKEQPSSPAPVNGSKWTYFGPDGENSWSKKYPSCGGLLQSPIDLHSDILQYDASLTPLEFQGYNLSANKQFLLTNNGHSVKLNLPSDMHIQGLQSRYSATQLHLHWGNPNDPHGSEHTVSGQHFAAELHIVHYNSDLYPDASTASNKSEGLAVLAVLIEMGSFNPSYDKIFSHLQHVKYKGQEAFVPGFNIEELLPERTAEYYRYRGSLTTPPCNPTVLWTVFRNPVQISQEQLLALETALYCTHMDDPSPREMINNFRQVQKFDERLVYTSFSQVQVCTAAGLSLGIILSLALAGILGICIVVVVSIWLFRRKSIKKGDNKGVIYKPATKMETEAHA

At Carbonic anhydrase 12, `CCCN(CCC)S(=O)(=O)c1ccc(C(=O)NCC(=O)O)cc1` returned a Ki above 10000 nM.

On to `CCCN(CCC)S(=O)(=O)c1ccc(C(=O)N[C@@H](C)C(=O)O)cc1`, for which the affinity at Carbonic anhydrase 9, expressed as Ki, was 27 nM.

Take `CCCN(CCC)S(=O)(=O)c1ccc(C(=O)N[C@@H](CC(C)C)C(=O)O)cc1`: the Ki at Carbonic anhydrase 9 stood at 26 nM.

As for `CCCN(CCC)S(=O)(=O)c1ccc(C(=O)N[C@@H](Cc2ccccc2)C(=O)O)cc1`, the Ki at Carbonic anhydrase 9 amounted to 210 nM.

The compound `CCCN(CCC)S(=O)(=O)c1ccc(C(=O)N[C@@H](Cc2c[nH]c3ccccc23)C(=O)O)cc1` had a Ki at Carbonic anhydrase 9 of 25 nM.

`CCCN(CCC)S(=O)(=O)c1ccc(C(=O)N[C@@H](CO)C(=O)O)cc1` yielded a Ki on Carbonic anhydrase 9 of 27 nM.

For the compound `CCCN(CCC)S(=O)(=O)c1ccc(C(=O)N[C@@H](Cc2ccc(O)cc2)C(=O)O)cc1`, the Ki on Carbonic anhydrase 9 came out at 32 nM.

Regarding `CCCN(CCC)S(=O)(=O)c1ccc(C(=O)N[C@@H](CCC(=O)O)C(=O)O)cc1`, the affinity at Carbonic anhydrase 9, expressed as Ki, was 31 nM.

On Carbonic anhydrase 9, `CCCN(CCC)S(=O)(=O)c1ccc(C(=O)N[C@@H](CCCCN)C(=O)O)cc1` returned a Ki of 32 nM.

In turn, `CCCN(CCC)S(=O)(=O)c1ccc(C(=O)N[C@@H](CCCNC(=N)N)C(=O)O)cc1` returned a Ki on Carbonic anhydrase 9 of 26 nM.

On Carbonic anhydrase 9, `CCCN(CCC)S(=O)(=O)c1ccc(C(=O)N[C@@H](CCSC)C(=O)O)cc1` showed a Ki of 61 nM.

Compound `CCCN(CCC)S(=O)(=O)c1ccc(C(=O)NCC(N)=O)cc1` showed a Ki at Carbonic anhydrase 9 of 1.9 nM.

As to `CCCN(CCC)S(=O)(=O)c1ccc(C(=O)N[C@@H](C)C(N)=O)cc1`, on Carbonic anhydrase 9, the Ki was found to be 15 nM.

As to `CCCN(CCC)S(=O)(=O)c1ccc(C(=O)N[C@@H](CC(C)C)C(N)=O)cc1`, on Carbonic anhydrase 9, the Ki amounted to 150 nM.

For `CCCN(CCC)S(=O)(=O)c1ccc(C(=O)N[C@@H](Cc2ccccc2)C(N)=O)cc1`, the Ki on Carbonic anhydrase 9 stood at 25 nM.

For the compound `CCCN(CCC)S(=O)(=O)c1ccc(C(=O)N[C@@H](CO)C(N)=O)cc1`, the Ki at Carbonic anhydrase 9 was 2.6 nM.

For the compound `CCCN(CCC)S(=O)(=O)c1ccc(C(=O)N[C@@H](Cc2ccc(O)cc2)C(N)=O)cc1`, on Carbonic anhydrase 9, the Ki was 21 nM.

Consider `CCCN(CCC)S(=O)(=O)c1ccc(C(=O)N[C@@H](CCCCN)C(N)=O)cc1`, for which the affinity on Carbonic anhydrase 9, expressed as Ki, was 27 nM.

Take `CCCN(CCC)S(=O)(=O)c1ccc(C(=O)N[C@@H](CCCNC(=N)N)C(N)=O)cc1`: the Ki on Carbonic anhydrase 9 amounted to 20 nM.

Compound `CCCN(CCC)S(=O)(=O)c1ccc(C(=O)N[C@@H](CS)C(N)=O)cc1` had a Ki at Carbonic anhydrase 9 of 28 nM.

The compound `CCCN(CCC)S(=O)(=O)c1ccc(C(=O)N[C@@H](CCSC)C(N)=O)cc1` displayed a Ki on Carbonic anhydrase 1 above 10000 nM.

These data come from ChEMBL document CHEMBL3603815, “Exploring new Probenecid-based carbonic anhydrase inhibitors: Synthesis, biological evaluation and docking studies” (Bioorg Med Chem, 2015).
